Source: patent publication US8501778B2, “Aralkyl piperidine derivatives and their uses as antalgic or ataractic agent” (priority 2008, dated 2013)
Counter-ions that a name gives are not always drawn. Like-named read-outs stand apart in the source and are kept apart here. Marks after values point to notes of the source that are not given here.

How the values were obtained:
Kunming mice [1] = assay: Acetic Acid Twisting Method in mice (antalgic effect); assay type: in vivo; settings: for antalgic: single dosage 20 mg/kg, acetic acid twisting, unit not given (method: inhibiting rate %); for inhibition in vivo at 10 mg/kg / inhibition in vivo at 20 mg/kg / inhibition in vivo at 40 mg/kg: Mus musculus
Kunming mice [2] = assay: Sedative effect: spontaneous activity of the mice recorded with AC power tube; assay type: in vivo; settings: single dosage 20 mg/kg, unit not given
Procedure: Kunming mice, clean class KM, purchased from Shanghai SLAC LABORATORY ANIMAL CO. LTD, breeding at general environment.
The compounds are formulated to solutions of 4 mg/ml, 2 mg/ml, and 1 mg/ml with water for injection. Animals in the control group and treatment group are all administered through subcutaneous injection at neck.
First of all, the mice in the treatment group are administrated with a solution of tested compounds (10 mg/kg, 20 mg/kg, 40 mg/kg) through subcutaneous injection at neck, the negative control group is administrated with physiological saline (20 ml/kg) orally, and the positive control group is administrated with Aspirin (20 ml/kg) orally. Each group is administrated with 10 ml/kg of 0.7% acetic acid via intraperitoneal injection (i.p.) after one hour. After 5 minutes, times of twisting response of each group of mice is recorded in 15 minutes, and twisting response inhibiting rate of each of the treatment groups is calculated according to the following equation: Inhibiting rate %=(average twisting times of negative control group−average twisting times of treated group)/average twisting times of negative control group×100% 6. A Sedative Effect is Evaluated by Using AC Power Tube to Record Spontaneous Activity of the Mice. 7. Testing the Antalgic and Sedative Effect of the Compounds with Single Dosage (20 mg/kg), See Table 2 for Details.

Kunming mice [3] = assay: Hot Plate Method in mice (antalgic effect); assay type: in vivo
mice [4] = settings: mouse, in vivo
[5] = tested on: S. typhimurium TA97, TA98, TA100 and TA102; assay: Bacterial Reverse-Mutation Assay (Ames TS); assay type: cell-based
Text: Strains: S. typhimurium TA97, TA98, TA100 and TA102.
Results: The assay included two parts: without S9 and with S9.

mice [6] = settings: daily for eight days; III-15 60 mg/kg oral gavage, Morphine 10 mg/kg PO; Hot Plate 15 minutes after each administration
mice [7] = assay: Jump test in mice (physical dependence, naloxone precipitated); settings: III-15 seven times in two days, 20-120 mg/kg PO, naloxone 2 mg/kg i.v. three hours after last dosing
[8] = Animal model studies, summary (oral absorption, therapeutic index); settings: summary statement
mice [9] = assay: Conditioned Place Preference test in mice (psychological dependence); settings: III-15 60 mg/kg oral gavage each day for six consecutive days
[10] = po, 10 mg/kg, gavage administration, mice, read-out: twisting response inhibiting rate (%)
[11] = po, 20 mg/kg, gavage administration, mice, read-out: twisting response inhibiting rate (%)
[12] = po, 40 mg/kg, gavage administration, mice, read-out: twisting response inhibiting rate (%)
[13] = Mus musculus, po, 1 h, 10 mg/kg, gavage administration, hot plate, read-out: Increasing rate of pain threshold (%)
[14] = Mus musculus, po, 1 h, 20 mg/kg, gavage administration, hot plate, read-out: Increasing rate of pain threshold (%)
[15] = sc, 10 mg/kg, subcutaneous injection at neck, mice, read-out: twisting response inhibiting rate (%)
[16] = sc, 20 mg/kg, subcutaneous injection at neck, mice, read-out: twisting response inhibiting rate (%)
[17] = sc, 40 mg/kg, subcutaneous injection at neck, mice, read-out: twisting response inhibiting rate (%)
[18] = Mus musculus, sc, 10 mg/kg, subcutaneous injection at neck, 1 hour after dosing, hot plate 55.5° C., read-out: Increasing rate of pain threshold (%)
[19] = Mus musculus, sc, 20 mg/kg, subcutaneous injection at neck, 1 hour after dosing, hot plate 55.5° C., read-out: Increasing rate of pain threshold (%)
[20] = Mus musculus, sc, 40 mg/kg, subcutaneous injection at neck, 1 hour after dosing, hot plate 55.5° C., read-out: Increasing rate of pain threshold (%)
[21] = sc, read-out: twisting response inhibiting rate (%)

CC(=O)Nc1ccc(CN2CCC(O)(CC(O)c3ccccc3)CC2)cc1.Cl (centres unmarked) [Compound V-2, N-p-acetylaminobenzyl-4-(2-hydroxy-2-phenylethyl)-4-piperidinol hydrochloride]
antalgic (Kunming mice [1]; mice): 80
sedative (Kunming mice [2]): 39.6

OC(CC1(O)CCN(C(c2ccccc2)c2ccccc2)CC1)c1ccccc1 (centres unmarked) [Compound V-3, N-diphenylmethyl-4-(2-hydroxy-2-phenylethyl)-4-piperidinol hydrochloride]
inhibition in vivo at 10 mg/kg (Kunming mice [1]; [10]): 60.6%
inhibition in vivo at 20 mg/kg (Kunming mice [1]; [11]): 49.8%
inhibition in vivo at 40 mg/kg (Kunming mice [1]; [12]): 68.1%
inhibition in vivo at 20 mg/kg (Kunming mice [1]; sc, read-out: antalgic): 84%
change in vivo at 10 mg/kg (Kunming mice [3]; [13]): 64.1%
change in vivo at 20 mg/kg (Kunming mice [3]; [14]): 86.8%
change in vivo at 40 mg/kg (Kunming mice [3]; Mus musculus, po, 1 h, 40 mg/kg, gavage administration, hot plate, read-out: Increasing rate of pain threshold (%)): 136%

O=C(CC1(O)CCN(Cc2ccccc2)CC1)c1ccccc1 [III-1, N-benzyl-4-benzoylmethyl-4-piperidinol hydrochloride]
inhibition in vivo at 20 mg/kg (Kunming mice [1]; sc, read-out: antalgic): 62%
inhibition in vivo at 10 mg/kg (Kunming mice [1]; [15]): 73.3%
inhibition in vivo at 20 mg/kg (Kunming mice [1]; [16]): 59.4%
inhibition in vivo at 40 mg/kg (Kunming mice [1]; [17]): 91.1%
change in vivo at 10 mg/kg (Kunming mice [3]; [18]): 99.7%
change in vivo at 20 mg/kg (Kunming mice [3]; [19]): 89%
change in vivo at 40 mg/kg (Kunming mice [3]; [20]): 148%

O=C(CC1(O)CCN(Cc2ccc(F)cc2)CC1)c1ccccc1 [III-3, N-p-fluorobenzyl-4-benzoylmethyl-4-piperidinol hydrochloride]
inhibition in vivo at 20 mg/kg (Kunming mice [1]; sc, read-out: antalgic): 76%
inhibition in vivo at 10 mg/kg (Kunming mice [1]; [15]): 69.4%
inhibition in vivo at 20 mg/kg (Kunming mice [1]; [16]): 77.2%
inhibition in vivo at 40 mg/kg (Kunming mice [1]; [17]): 71.5%
change in vivo at 10 mg/kg (Kunming mice [3]; [18]): 11.9%
change in vivo at 20 mg/kg (Kunming mice [3]; [19]): 18.5%
change in vivo at 40 mg/kg (Kunming mice [3]; [20]): 29.4%

O=C(CC1(O)CCN(Cc2ccc([N+](=O)[O-])cc2)CC1)c1ccccc1 [III-4, N-p-nitrobenzyl-4-benzoylmethyl-4-piperidinol hydrochloride]
inhibition in vivo at 20 mg/kg (Kunming mice [1]; sc, read-out: antalgic): 100%
inhibition in vivo at 10 mg/kg (Kunming mice [1]; [21]): 100%
inhibition in vivo at 20 mg/kg (Kunming mice [1]; [21]): 100%
inhibition in vivo at 40 mg/kg (Kunming mice [1]; [21]): 100%
change in vivo at 10 mg/kg (Kunming mice [3]; [18]): 19.8%
change in vivo at 20 mg/kg (Kunming mice [3]; [19]): 6.47%
change in vivo at 40 mg/kg (Kunming mice [3]; [20]): 15.9%

Nc1ccc(CN2CCC(O)(CC(=O)c3ccccc3)CC2)cc1 [III-5, N-p-aminobenzyl-4-benzoylmethyl-4-piperidinol hydrochloride]
inhibition in vivo at 20 mg/kg (Kunming mice [1]; sc, read-out: antalgic): 100%
inhibition in vivo at 10 mg/kg (Kunming mice [1]; [21]): 100%
inhibition in vivo at 20 mg/kg (Kunming mice [1]; [21]): 100%
inhibition in vivo at 40 mg/kg (Kunming mice [1]; [21]): 100%
change in vivo at 10 mg/kg (Kunming mice [3]; [18]): 58.3%
change in vivo at 20 mg/kg (Kunming mice [3]; [19]): 75.6%
change in vivo at 40 mg/kg (Kunming mice [3]; [20]): 190%

CC(=O)Nc1ccc(CN2CCC(O)(CC(=O)c3ccccc3)CC2)cc1.Cl [III-6, N-p-acetylaminobenzyl-4-benzoylmethyl-4-piperidinol hydrochloride]
antalgic (Kunming mice [1]; mice): 45
sedative (Kunming mice [2]): 75

O=C(CC1(O)CCN(C(c2ccccc2)c2ccccc2)CC1)c1ccccc1 [III-7, N-diphenylmethyl-4-benzoylmethyl-4-piperidinol hydrochloride]
inhibition in vivo at 10 mg/kg (Kunming mice [1]; [10]): 25.8%
inhibition in vivo at 20 mg/kg (Kunming mice [1]; [11]): 38%
inhibition in vivo at 40 mg/kg (Kunming mice [1]; [12]): 44.2%
inhibition in vivo at 20 mg/kg (Kunming mice [1]; sc, read-out: antalgic): 45%
change in vivo at 10 mg/kg (Kunming mice [3]; [13]): 82.8%
change in vivo at 20 mg/kg (Kunming mice [3]; [14]): 126%

COc1ccc(CN2CCC(O)(CC(=O)c3ccccc3)CC2)cc1.Cl [III-15, N-p-methoxybenzyl-4-benzoylmethyl-4-piperidinol hydrochloride]
inhibition in vivo at 20 mg/kg (Kunming mice [1]; sc, read-out: antalgic): 96%
inhibition in vivo at 10 mg/kg (Kunming mice [1]; [21]): 55.4%
inhibition in vivo at 20 mg/kg (Kunming mice [1]; [21]): 94.4%
inhibition in vivo at 40 mg/kg (Kunming mice [1]; [21]): 100%
change in vivo at 10 mg/kg (Kunming mice [3]; [18]): 77.7%
change in vivo at 20 mg/kg (Kunming mice [3]; [19]): 118%
change in vivo at 40 mg/kg (Kunming mice [3]; [20]): 260%
reversal of the antalgic effect by naloxone (mice [4]): does not reversed by naloxone
Ames test result (revertants) ([5]; TA97, TA98, TA100, TA102, without S9 and with S9, all tested doses): negative
inhibitory effect on bacterial growth ([5]; without S9 TA98 5000 μg/plate and with S9 TA97 5000 μg/plate, no inhibition at all other doses and strains): inhibitory effects on bacterial for the growth were seen
change of pain threshold / antalgic effect on consecutive administration (drug resistance) (mice [6]): does not show weakening
jumping behavior after naloxone (physical dependence) (mice [7]): no jumping behavior is observed
absorption after oral administration [8]: good absorption after oral administration
Conditioned Place Preference (psychological dependence) (mice [9]): do not show Conditioned Place Preference

COc1ccc(C(C)N2CCC(F)(CC(=O)c3ccccc3)CC2)cc1 (centres unmarked) [IX-1, N-(1-(p-methoxyphenyl)ethyl)-4-benzoylmethyl-4-fluoropiperidine hydrochloride]
inhibition in vivo at 20 mg/kg (Kunming mice [1]; sc, read-out: antalgic): 76%
inhibition in vivo at 10 mg/kg (Kunming mice [1]; [15]): 60.4%
inhibition in vivo at 20 mg/kg (Kunming mice [1]; [16]): 68.7%
inhibition in vivo at 40 mg/kg (Kunming mice [1]; [17]): 81%
change in vivo at 10 mg/kg (Kunming mice [3]; [18]): 86.4%
change in vivo at 20 mg/kg (Kunming mice [3]; [19]): 109%
change in vivo at 40 mg/kg (Kunming mice [3]; [20]): 156%

CC(c1ccc(N2CCOCC2)cc1)N1CCC(Cl)(CC(=O)c2ccccc2)CC1 (centres unmarked) [IX-7, N-(1-(4-morpholinophenyl)ethyl)-4-benzoylmethyl-4-chloropiperidine hydrochloride]
inhibition in vivo at 20 mg/kg (Kunming mice [1]; sc, read-out: antalgic): 72%
inhibition in vivo at 10 mg/kg (Kunming mice [1]; [15]): 66%
inhibition in vivo at 20 mg/kg (Kunming mice [1]; [16]): 60.3%
inhibition in vivo at 40 mg/kg (Kunming mice [1]; [17]): 76.4%
change in vivo at 10 mg/kg (Kunming mice [3]; [18]): 79.5%
change in vivo at 20 mg/kg (Kunming mice [3]; [19]): 101%
change in vivo at 40 mg/kg (Kunming mice [3]; [20]): 130%

CN1CC[C@]23c4c5ccc(O)c4O[C@H]2[C@@H](O)C=C[C@H]3[C@H]1C5 [Morphine, reference compound]
change in vivo at 2 mg/kg (Kunming mice [3]; Mus musculus, sc, 1 h, positive control, 2 mg/kg (remark), subcutaneous injection, hot plate, read-out: Increasing rate of pain threshold (%)): 202%
reversal of the antalgic effect by naloxone (mice [4]): is reversed by naloxone
change of pain threshold / antalgic effect on consecutive administration (drug resistance) (mice [6]): reduces gradually starting from the second day of administration
jumping behavior after naloxone (physical dependence) (mice [7]): obvious jumping behavior
Conditioned Place Preference (psychological dependence) (mice [9]): show obvious Conditioned Place Preference

COC1(CC(=O)c2ccccc2)CCN(Cc2ccc(NC(C)=O)cc2)CC1.Cl [VIII-1, N-p-acetylaminobenzyl-4-benzoylmethyl-4-methoxylpiperidine hydrochloride]
twisting response inhibiting rate (%) (Kunming mice [1]; 10 mg/kg, subcutaneous injection at neck, mice): 35.03* %
twisting response inhibiting rate (%) (Kunming mice [1]; 20 mg/kg, subcutaneous injection at neck, mice): 42.11%
twisting response inhibiting rate (%) (Kunming mice [1]; 40 mg/kg, subcutaneous injection at neck, mice): 57.69%
antalgic (Kunming mice [1]; mice): 64
sedative (Kunming mice [2]): 48
Increasing rate of pain threshold (%) (Kunming mice [3]; 10 mg/kg, subcutaneous injection at neck, 1 hour after dosing, hot plate 55.5° C.): 61.04%
Increasing rate of pain threshold (%) (Kunming mice [3]; 20 mg/kg, subcutaneous injection at neck, 1 hour after dosing, hot plate 55.5° C.): 76.63* %
Increasing rate of pain threshold (%) (Kunming mice [3]; 40 mg/kg, subcutaneous injection at neck, 1 hour after dosing, hot plate 55.5° C.): 105.20* %
